The text below walks through data of article PMC10175918 (Communications Biology, 2023).

What all share (assay): TGFα-shedding assay-based GPCR screening with chimeric Gα subunit proteins
What all share (type): cell-based

For assay [1], the target named is T1, 348 GPCRs (Homo sapiens, UniProt P30518).
T1 construct: expressed in transfected cells; host or cells: HEK293A

The target in assay [2] is T2, 348 GPCRs (Homo sapiens, UniProt P41180).
T2 construct: expressed in transfected cells; host or cells: HEK293A
T2 sequence (P41180 20-1078): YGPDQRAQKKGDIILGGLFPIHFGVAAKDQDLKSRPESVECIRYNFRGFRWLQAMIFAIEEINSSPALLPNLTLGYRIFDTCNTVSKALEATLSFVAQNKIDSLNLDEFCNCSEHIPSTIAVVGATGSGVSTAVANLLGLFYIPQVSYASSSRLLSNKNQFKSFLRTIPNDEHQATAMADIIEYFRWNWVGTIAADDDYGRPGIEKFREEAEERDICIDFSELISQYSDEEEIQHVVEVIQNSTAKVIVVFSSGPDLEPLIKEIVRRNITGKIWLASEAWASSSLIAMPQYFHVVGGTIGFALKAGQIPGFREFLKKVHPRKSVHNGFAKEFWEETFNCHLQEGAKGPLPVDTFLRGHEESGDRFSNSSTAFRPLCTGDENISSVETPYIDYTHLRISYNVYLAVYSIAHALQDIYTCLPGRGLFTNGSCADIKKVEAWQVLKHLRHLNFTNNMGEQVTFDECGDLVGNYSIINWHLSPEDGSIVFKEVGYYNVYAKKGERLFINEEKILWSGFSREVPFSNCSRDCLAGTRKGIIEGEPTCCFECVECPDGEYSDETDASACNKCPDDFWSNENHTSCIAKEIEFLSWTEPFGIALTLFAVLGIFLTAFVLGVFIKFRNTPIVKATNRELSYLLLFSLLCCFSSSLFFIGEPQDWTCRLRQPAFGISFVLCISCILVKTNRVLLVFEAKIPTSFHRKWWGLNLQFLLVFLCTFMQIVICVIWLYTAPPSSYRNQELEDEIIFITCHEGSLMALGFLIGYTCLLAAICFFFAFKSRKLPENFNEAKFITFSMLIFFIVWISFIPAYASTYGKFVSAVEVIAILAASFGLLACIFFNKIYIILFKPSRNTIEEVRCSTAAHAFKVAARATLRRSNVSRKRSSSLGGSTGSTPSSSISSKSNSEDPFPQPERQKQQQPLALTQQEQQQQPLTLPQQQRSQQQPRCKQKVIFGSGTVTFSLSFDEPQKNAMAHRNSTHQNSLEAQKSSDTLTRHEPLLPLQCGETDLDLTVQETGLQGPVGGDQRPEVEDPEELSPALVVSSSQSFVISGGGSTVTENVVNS
Conditions: 10µM, Favipiravir 100μM.

The target in assay [3] is T3, 348 GPCRs (Homo sapiens, UniProt P47775).
T3 construct: expressed in transfected cells; host or cells: HEK293A
T3 sequence (P47775 1-334): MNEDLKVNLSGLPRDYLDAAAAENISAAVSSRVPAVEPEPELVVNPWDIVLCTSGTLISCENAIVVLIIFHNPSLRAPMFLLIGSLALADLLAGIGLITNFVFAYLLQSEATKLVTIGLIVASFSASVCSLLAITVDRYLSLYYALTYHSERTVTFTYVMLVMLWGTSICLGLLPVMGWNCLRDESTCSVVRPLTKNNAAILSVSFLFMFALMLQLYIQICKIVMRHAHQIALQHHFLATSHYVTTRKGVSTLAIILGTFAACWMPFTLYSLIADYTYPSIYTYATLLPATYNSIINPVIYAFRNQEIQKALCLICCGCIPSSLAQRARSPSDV

Assay [4] has as its target T4, 348 GPCRs (Homo sapiens, UniProt Q14831).
T4 construct: expressed in transfected cells; host or cells: HEK293A
Conditions: 10µM, Favipiravir 100μM.

Assay [5] deals with T5, 348 GPCRs (Homo sapiens, UniProt Q15722).
T5 construct: expressed in transfected cells; host or cells: HEK293A
Conditions: 10µM, Favipiravir 100μM.

Assay [6] addresses T6, 348 GPCRs (Homo sapiens, UniProt Q96P68).
T6 construct: expressed in transfected cells; host or cells: HEK293A

Assay [7] concerns the target T7, 348 GPCRs (Homo sapiens, UniProt Q9GZQ6).
T7 construct: expressed in transfected cells; host or cells: HEK293A
Conditions: 10µM, Favipiravir 100μM.

Assay [8] has as its target T8, 348 GPCRs (Homo sapiens, UniProt Q9NS66).
T8 construct: expressed in transfected cells; host or cells: HEK293A
Conditions: 10µM, Favipiravir 100μM.

The target in assay [9] is T9, 348 GPCRs (Homo sapiens, UniProt Q9NYW3).
T9 construct: expressed in transfected cells; host or cells: HEK293A
T9 sequence (Q9NYW3 1-318): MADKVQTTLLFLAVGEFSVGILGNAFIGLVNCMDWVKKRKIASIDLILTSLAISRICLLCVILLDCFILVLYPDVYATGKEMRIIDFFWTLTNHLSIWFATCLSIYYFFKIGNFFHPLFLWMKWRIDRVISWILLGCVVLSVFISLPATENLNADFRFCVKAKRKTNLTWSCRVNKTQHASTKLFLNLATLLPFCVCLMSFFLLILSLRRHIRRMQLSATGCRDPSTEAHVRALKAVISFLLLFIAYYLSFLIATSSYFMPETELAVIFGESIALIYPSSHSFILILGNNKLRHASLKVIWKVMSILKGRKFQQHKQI
Conditions: 10µM, Favipiravir 100μM.

The target in assay [10] is 348 GPCRs (Homo sapiens, UniProt Q9UPC5). Conditions: 10µM, Favipiravir 100μM.
Setting [11] is: CASR (calcium sensing receptor), read-out: % GPCR activation compared to TPA.
Where [12] appears, read: GRM7 (glutamate receptor, metabotropic 7), read-out: % GPCR activation compared to TPA.
[13] abbreviates: LTB4R (leukotriene B4 receptor), read-out: % GPCR activation compared to TPA.
[14] abbreviates: NPFFR1 (neuropeptide FF receptor 1), read-out: % GPCR activation compared to TPA.
Where [15] appears, read: GPR173 (G protein-coupled receptor 173), read-out: % GPCR activation compared to TPA.
Setting [16] is: TAS2R7 (taste receptor, type 2, member 7), read-out: % GPCR activation compared to TPA.
Where [17] appears, read: GPR34 (G Protein-Coupled Receptor 34), read-out: % GPCR activation compared to TPA.
[18] abbreviates: read-out: % GPCR activation compared to TPA, GPCR V2 (arginine vasopressin receptor 2).
The mark [19] stands for this setting: read-out: % GPCR activation compared to TPA, CASR (calcium sensing receptor).
Where [20] appears, read: read-out: % GPCR activation compared to TPA, GPCR GPR12 (G protein-coupled receptor 12).
Where [21] appears, read: read-out: % GPCR activation compared to TPA, GRM7 (glutamate receptor, metabotropic 7).
Setting [22] is: read-out: % GPCR activation compared to TPA, LTB4R (leukotriene B4 receptor).
Setting [23] is: read-out: % GPCR activation compared to TPA, GPCR OXGR1 (oxoglutarate (alpha-ketoglutarate) receptor 1).
The mark [24] stands for this setting: read-out: % GPCR activation compared to TPA, NPFFR1 (neuropeptide FF receptor 1).
Where [25] appears, read: read-out: % GPCR activation compared to TPA, GPR173 (G protein-coupled receptor 173).
Where [26] appears, read: read-out: % GPCR activation compared to TPA, TAS2R7 (taste receptor, type 2, member 7).
Where [27] appears, read: read-out: % GPCR activation compared to TPA, GPR34 (G Protein-Coupled Receptor 34).
Where [28] appears, read: GPCR V2 (arginine vasopressin receptor 2), read-out: % GPCR activation compared to TPA.
Where [29] appears, read: GPCR GPR12 (G protein-coupled receptor 12), read-out: % GPCR activation compared to TPA.
Where [30] appears, read: GPCR OXGR1 (oxoglutarate (alpha-ketoglutarate) receptor 1), read-out: % GPCR activation compared to TPA.

Each structure is given as a SMILES string. Read-outs that look alike come from different tables or passages of the source.

T5 sequence (Q15722 whole entry): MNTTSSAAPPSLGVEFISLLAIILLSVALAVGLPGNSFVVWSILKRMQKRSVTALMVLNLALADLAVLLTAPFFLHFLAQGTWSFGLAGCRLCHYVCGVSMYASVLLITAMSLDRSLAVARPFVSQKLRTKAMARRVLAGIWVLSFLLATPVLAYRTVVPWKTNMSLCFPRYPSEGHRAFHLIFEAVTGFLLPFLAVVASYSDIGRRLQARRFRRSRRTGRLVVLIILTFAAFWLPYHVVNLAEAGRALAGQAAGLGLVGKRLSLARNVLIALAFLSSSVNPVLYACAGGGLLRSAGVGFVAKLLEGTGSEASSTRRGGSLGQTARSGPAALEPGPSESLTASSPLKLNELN
T8 sequence (Q9NS66 whole entry): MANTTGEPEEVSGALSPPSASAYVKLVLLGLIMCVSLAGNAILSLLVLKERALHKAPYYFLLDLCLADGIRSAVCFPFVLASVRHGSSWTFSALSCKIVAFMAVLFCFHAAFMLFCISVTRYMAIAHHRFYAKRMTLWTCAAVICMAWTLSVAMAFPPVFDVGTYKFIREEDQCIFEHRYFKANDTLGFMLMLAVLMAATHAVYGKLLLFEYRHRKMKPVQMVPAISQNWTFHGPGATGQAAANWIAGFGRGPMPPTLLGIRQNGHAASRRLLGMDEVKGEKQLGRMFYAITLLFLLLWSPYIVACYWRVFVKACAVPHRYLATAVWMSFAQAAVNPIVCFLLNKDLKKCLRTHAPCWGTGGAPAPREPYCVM
Sequence of 348 GPCRs (Homo sapiens, UniProt Q9UPC5) (Q9UPC5 whole entry): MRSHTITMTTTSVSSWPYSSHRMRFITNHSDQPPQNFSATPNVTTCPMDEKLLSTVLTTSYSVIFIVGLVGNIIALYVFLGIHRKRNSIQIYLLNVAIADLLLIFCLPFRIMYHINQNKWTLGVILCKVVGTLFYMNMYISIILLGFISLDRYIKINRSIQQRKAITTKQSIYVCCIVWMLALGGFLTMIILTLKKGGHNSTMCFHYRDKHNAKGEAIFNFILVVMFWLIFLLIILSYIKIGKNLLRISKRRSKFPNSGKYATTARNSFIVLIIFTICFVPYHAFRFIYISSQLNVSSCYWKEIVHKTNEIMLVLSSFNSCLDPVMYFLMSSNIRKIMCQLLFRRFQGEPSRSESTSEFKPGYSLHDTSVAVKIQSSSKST
T4 sequence (Q14831 35-915): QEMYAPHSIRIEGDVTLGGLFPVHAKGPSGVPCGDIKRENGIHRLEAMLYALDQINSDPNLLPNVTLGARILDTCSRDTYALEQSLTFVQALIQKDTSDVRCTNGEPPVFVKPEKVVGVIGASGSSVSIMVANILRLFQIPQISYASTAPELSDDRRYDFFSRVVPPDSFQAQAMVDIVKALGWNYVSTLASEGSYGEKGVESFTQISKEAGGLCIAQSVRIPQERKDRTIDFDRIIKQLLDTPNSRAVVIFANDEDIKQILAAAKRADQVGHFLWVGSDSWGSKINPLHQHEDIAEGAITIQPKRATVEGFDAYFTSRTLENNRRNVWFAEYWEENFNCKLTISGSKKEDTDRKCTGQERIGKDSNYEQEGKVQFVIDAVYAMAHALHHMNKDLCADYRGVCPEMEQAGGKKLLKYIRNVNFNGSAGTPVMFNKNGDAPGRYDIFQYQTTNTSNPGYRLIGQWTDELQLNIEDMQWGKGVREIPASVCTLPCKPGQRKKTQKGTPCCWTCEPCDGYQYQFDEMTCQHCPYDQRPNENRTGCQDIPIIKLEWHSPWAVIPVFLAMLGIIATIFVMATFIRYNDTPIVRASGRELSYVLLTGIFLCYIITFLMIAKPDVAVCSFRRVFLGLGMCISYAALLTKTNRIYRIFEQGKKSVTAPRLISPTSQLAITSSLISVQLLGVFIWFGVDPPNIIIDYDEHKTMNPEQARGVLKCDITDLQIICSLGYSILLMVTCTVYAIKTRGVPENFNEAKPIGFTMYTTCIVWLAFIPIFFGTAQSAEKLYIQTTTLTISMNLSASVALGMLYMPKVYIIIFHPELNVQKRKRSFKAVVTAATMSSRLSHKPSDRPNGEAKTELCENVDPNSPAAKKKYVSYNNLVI
T1 sequence (P30518 whole entry): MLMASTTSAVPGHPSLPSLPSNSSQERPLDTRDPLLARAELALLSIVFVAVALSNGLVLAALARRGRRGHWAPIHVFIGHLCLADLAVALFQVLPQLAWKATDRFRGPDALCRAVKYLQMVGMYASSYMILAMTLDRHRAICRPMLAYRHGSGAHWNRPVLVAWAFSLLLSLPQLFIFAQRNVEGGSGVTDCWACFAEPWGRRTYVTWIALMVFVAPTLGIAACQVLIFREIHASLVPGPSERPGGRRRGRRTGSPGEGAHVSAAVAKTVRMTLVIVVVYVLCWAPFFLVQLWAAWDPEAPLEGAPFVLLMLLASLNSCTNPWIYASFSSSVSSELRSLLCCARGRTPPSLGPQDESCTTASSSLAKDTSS
T7 sequence (Q9GZQ6 whole entry): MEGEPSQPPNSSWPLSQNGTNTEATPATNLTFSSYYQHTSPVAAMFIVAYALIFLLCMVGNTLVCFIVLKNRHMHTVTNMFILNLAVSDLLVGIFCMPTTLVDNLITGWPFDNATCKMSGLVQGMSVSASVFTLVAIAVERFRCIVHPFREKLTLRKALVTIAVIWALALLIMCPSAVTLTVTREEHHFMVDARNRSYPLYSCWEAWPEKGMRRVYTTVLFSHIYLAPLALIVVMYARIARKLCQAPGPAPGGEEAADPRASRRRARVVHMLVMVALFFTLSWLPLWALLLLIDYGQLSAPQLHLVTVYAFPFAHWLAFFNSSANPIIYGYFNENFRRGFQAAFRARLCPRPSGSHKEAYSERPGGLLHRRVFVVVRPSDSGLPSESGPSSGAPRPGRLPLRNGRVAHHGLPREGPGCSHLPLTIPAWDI

Consider `NC(=O)c1nc(F)cnc1O` [favipiravir, 6-fluoro-3-hydroxy-2-pyrazinecarboxamide], for which the activation at 100 µM at 348 GPCRs [1] (GPCR V2 (arginine vasopressin receptor 2), 100μM, read-out: % GPCR activation compared to TPA) is 1.41%; on 348 GPCRs [2] (setting [11]) it was 0.748%; at 348 GPCRs [3] (GPCR GPR12 (G protein-coupled receptor 12), 100μM, read-out: % GPCR activation compared to TPA), 3.7%; at 348 GPCRs [6] (GPCR OXGR1 (oxoglutarate (alpha-ketoglutarate) receptor 1), 100μM, read-out: % GPCR activation compared to TPA), -1.07%. Further, the activation at 10 µM at 348 GPCRs [4] (setting [12]) is -0.143%; on 348 GPCRs [5] (setting [13]), -0.299%; at 348 GPCRs [7] (setting [14]) it was -3.31%; on 348 GPCRs [8] (setting [15]) it was 0.0591%; at 348 GPCRs [9] (setting [16]), -0.16%; on 348 GPCRs [10] (setting [17]), -0.575%.

Turning to `CC(C)OC(=O)[C@H](C)N[P@](=O)(OC[C@H]1O[C@@H](n2ccc(=O)[nH]c2=O)[C@](C)(F)[C@@H]1O)Oc1ccccc1` [sofosbuvir], the activation at 10 µM at 348 GPCRs [1] (setting [18]) was -0.417%; on 348 GPCRs [3] (setting [20]), -0.471%; at 348 GPCRs [4] (setting [21]) it was 10.4%; at 348 GPCRs [5] (setting [22]) it was 0.62%; at 348 GPCRs [6] (setting [23]), 1.77%; on 348 GPCRs [7] (setting [24]), -1.9%. The activation at 10 µM at 348 GPCRs [8] (setting [25]) is -0.581%; on 348 GPCRs [9] (setting [26]), 0.253%; at 348 GPCRs [10] (setting [27]), -0.895%. Besides, the activation at 100 µM at 348 GPCRs [2] (setting [19]) is -3.31%.

On to `CCC(CC)COC(=O)[C@H](C)N[P@](=O)(OC[C@H]1O[C@@](C#N)(c2ccc3c(N)ncnn23)[C@H](O)[C@@H]1O)Oc1ccccc1` [remdesivir], for which the activation at 10 µM was 1.36% on 348 GPCRs [1] (setting [18]); 5.35% at 348 GPCRs [3] (setting [20]); -0.738% at 348 GPCRs [4] (setting [21]); -0.224% at 348 GPCRs [5] (setting [22]); 0.444% at 348 GPCRs [6] (setting [23]); -0.49% on 348 GPCRs [7] (setting [24]). For the same compound, the activation at 10 µM on 348 GPCRs [8] (setting [25]) is 1.49%; at 348 GPCRs [9] (setting [26]) it was 0.159%; on 348 GPCRs [10] (setting [27]) it was -1.23%. For the same compound, the activation at 100 µM on 348 GPCRs [2] (setting [19]) stood at 4.48%.

With `N#C[C@@]1(c2ccc3c(N)ncnn23)O[C@H](CO)[C@@H](O)[C@H]1O` [GS441524], the activation at 10 µM on 348 GPCRs [1] (setting [28]) is -0.765%; on 348 GPCRs [3] (setting [29]), 4.27%; at 348 GPCRs [4] (setting [12]), 1.06%; at 348 GPCRs [5] (setting [13]), 0.849%; at 348 GPCRs [6] (setting [30]), -0.462%; on 348 GPCRs [7] (setting [14]), 1.07%. In addition, the activation at 10 µM is 0.119% at 348 GPCRs [8] (setting [15]), -0.22% at 348 GPCRs [9] (setting [16]) and -1.27% on 348 GPCRs [10] (setting [17]). For the same compound, the activation at 100 µM at 348 GPCRs [2] (setting [11]) was 1.55%.

Take `CC(C)C(=O)OC[C@H]1O[C@@H](n2ccc(NO)nc2=O)[C@H](O)[C@@H]1O` [molnupiravir]: the activation at 10 µM on 348 GPCRs [1] (setting [28]) is -0.988%; on 348 GPCRs [3] (setting [29]), 0.357%; on 348 GPCRs [4] (setting [12]) it was -1.87%; on 348 GPCRs [5] (setting [13]), -0.697%; on 348 GPCRs [6] (setting [30]), 0.239%; on 348 GPCRs [7] (setting [14]) it was -0.462%. Also, the values for the activation at 10 µM on 348 GPCRs [8] (setting [15]), at 348 GPCRs [9] (setting [16]) and on 348 GPCRs [10] (setting [17]) were -4.49%, -0.399% and -1.95%, respectively. Further, the activation at 100 µM on 348 GPCRs [2] (setting [11]) is -0.137%.
